In patent US9108930B2, “N1- and N2-carbamoyl-1,2,3-triazole serine hydrolase inhibitors and methods” (The Scripps Research Institute, priority 2011, dated 2015):
pIC50: −log10 of the molar value. Where “and” joins values, the source holds several entries; their conditions need not be identical. Identical values can stand only once. One block for each molecule: values may come before it.

Assays:
[1] = tested on: serine hydrolases in mouse brain proteome; assay: Selectivity profile by competitive ABPP (mouse brain proteome), DAGL series; assay type: biochemical
[2] = molecular target: T1, DAGLB (Mus musculus, UniProt Q91WC9); assay: Gel-based ABPP assay against recombinant DAGLB (HEK293T-DAGLB lysates); assay type: biochemical; design: Full-length cDNAs encoding serine hydrolases were purchased from Open Biosystems; V5; host or cells: HEK293T; settings: for activity against DAGLB: recombinant
T1 sequence (Q91WC9 1-669): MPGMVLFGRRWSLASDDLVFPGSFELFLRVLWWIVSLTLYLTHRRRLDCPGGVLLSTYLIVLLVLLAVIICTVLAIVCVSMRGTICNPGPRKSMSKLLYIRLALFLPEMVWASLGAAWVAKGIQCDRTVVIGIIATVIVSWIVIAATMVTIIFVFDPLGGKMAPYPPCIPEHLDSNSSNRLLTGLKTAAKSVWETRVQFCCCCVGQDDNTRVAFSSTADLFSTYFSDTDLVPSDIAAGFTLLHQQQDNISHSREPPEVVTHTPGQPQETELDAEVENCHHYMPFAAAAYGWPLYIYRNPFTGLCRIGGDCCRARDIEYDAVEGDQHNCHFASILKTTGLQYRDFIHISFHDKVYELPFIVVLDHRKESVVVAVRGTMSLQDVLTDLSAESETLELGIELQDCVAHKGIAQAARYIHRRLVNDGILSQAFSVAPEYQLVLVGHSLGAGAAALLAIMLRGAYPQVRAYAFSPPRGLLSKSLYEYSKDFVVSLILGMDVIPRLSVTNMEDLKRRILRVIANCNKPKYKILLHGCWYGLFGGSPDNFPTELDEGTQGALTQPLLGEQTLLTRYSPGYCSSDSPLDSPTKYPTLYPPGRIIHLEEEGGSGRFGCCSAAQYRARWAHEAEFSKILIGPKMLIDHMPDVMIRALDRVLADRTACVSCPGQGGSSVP

[3] = tested on: serine hydrolases (SHs) in mouse T-cell proteomes; assay: Gel-based competitive ABPP, mouse T-cell proteomes in vitro, SH reactivity profile; assay type: biochemical; settings: 100 nM, 30 minutes at 37° C.
[4] = molecular target: T2, ABHD11 (Mus musculus, UniProt Q8K4F5); assay: Gel-based competitive ABPP, mouse T-cell proteome in vitro; assay type: biochemical; settings: for pIC50: in vitro, 30 minutes at 37° C.
T2 sequence (Q8K4F5 35-307): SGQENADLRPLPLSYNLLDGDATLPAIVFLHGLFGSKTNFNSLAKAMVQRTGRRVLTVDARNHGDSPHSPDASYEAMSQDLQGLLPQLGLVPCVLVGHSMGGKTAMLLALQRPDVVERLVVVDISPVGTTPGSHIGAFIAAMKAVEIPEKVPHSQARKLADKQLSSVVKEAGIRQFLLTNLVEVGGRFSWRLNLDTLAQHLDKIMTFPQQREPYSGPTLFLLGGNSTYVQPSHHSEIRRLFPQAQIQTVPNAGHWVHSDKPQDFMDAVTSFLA

[5] = molecular target: T2, ABHD11; assay: ABPP-SILAC in living mouse T-cells; settings: 3 nM inhibitor, 4 h
[6] = molecular target: T2, ABHD11; assay: In situ inhibition in cultured mouse T-cells, gel-based competitive ABPP; assay type: cell-based; settings: 4 h at 37° C.; read-out: potency of ABHD11 inactivation in cultured T-cells
[7] = molecular target: T3, DAGLA (Mus musculus, UniProt Q6WQJ1); assay: Activity against recombinant DAGLA; assay type: biochemical
T3 construct: Full-length cDNAs encoding serine hydrolases were purchased from Open Biosystems; V5; host or cells: HEK293T

[8] = tested on: serine hydrolases in mouse tissues; assay: In vivo ABPP analysis of tissues from KLH25-treated mice; settings: 25 mg/kg in PEG300, i.p., about 4 hours
Method: To assess the degree to which KLH25 is active in vivo, mice were treated with the compound for about 4 hours (25 mg/kg in PEG300, administered intraperitoneally, i.p.), sacrificed, and tissues were harvested for ABPP analysis.

[9] = molecular target: T4, APEH (Mus musculus, UniProt Q8R146); assay: Gel-based competitive ABPP, mouse T-cell proteome in vitro; assay type: biochemical; settings: IC50 for APEH, in vitro, 30 minutes at 37° C., mouse
T4 sequence (Q8R146 1-732): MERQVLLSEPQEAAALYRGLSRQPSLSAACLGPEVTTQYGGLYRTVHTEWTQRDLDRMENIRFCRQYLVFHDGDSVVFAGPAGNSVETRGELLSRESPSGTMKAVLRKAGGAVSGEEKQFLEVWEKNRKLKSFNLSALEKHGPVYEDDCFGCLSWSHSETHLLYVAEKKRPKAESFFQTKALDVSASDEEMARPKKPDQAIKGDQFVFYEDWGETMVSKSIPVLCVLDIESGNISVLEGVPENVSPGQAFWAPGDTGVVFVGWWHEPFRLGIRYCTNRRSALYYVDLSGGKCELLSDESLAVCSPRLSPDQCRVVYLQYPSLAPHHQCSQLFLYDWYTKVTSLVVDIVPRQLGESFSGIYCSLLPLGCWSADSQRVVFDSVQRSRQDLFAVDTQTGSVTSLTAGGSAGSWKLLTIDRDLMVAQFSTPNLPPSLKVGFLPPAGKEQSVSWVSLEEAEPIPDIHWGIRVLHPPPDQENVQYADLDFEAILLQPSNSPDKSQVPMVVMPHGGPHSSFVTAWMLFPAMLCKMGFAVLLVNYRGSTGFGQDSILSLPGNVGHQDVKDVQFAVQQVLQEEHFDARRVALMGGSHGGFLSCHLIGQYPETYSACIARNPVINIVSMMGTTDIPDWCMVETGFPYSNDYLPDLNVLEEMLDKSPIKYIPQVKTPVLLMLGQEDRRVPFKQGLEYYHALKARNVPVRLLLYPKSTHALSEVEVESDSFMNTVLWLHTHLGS
Method: The carbamoyl triazole regioisomers were separated by gel chromatography and used for subsequent experiments. […] The compounds were screened at concentrations of 10 and 100 nM in mouse T-cell proteomes (FIG. 3e and FIG. 12).
Gel-based competitive ABPP experiments were performed as described previously. For competitive ABPP with FP-rhodamine, proteomes (1 mg/mL in PBS) were treated with FP-rhodamine (2 μM final concentration) in a […] total reaction volume. After 30 minutes at 25° C., the reactions were quenched with 2×SDS-PAGE loading buffer.
Proteomes were incubated with inhibitors for 30 minutes at 37° C. (in vitro) or for 4 h at 37° C. (in situ) at the indicated concentrations (n=3) prior to FP-rhodamine labeling. After SDS-PAGE and in-gel visualization, the percentage enzymatic activity remaining was determined by measuring the integrated optical intensity of the bands using IMAGER® software. IC50 values were determined from a dose-response curve generated using PRISM® software (GraphPad).

[10] = molecular target: PAFAH2 (Mus musculus, UniProt Q8VDG7); assay: as above; assay type: biochemical; settings: 30 minutes at 37° C.
PAFAH2, sequence (Q8VDG7 whole entry): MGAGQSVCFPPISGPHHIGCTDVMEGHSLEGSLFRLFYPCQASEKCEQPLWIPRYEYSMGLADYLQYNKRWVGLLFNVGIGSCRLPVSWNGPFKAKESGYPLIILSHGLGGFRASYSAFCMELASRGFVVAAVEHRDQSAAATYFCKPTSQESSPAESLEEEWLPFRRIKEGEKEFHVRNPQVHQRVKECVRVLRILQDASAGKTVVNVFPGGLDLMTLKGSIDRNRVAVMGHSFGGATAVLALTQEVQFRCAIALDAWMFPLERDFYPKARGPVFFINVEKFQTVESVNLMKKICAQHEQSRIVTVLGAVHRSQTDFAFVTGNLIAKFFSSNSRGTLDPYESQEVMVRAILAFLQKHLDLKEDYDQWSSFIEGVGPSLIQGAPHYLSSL

T3 sequence (Q6WQJ1 whole entry): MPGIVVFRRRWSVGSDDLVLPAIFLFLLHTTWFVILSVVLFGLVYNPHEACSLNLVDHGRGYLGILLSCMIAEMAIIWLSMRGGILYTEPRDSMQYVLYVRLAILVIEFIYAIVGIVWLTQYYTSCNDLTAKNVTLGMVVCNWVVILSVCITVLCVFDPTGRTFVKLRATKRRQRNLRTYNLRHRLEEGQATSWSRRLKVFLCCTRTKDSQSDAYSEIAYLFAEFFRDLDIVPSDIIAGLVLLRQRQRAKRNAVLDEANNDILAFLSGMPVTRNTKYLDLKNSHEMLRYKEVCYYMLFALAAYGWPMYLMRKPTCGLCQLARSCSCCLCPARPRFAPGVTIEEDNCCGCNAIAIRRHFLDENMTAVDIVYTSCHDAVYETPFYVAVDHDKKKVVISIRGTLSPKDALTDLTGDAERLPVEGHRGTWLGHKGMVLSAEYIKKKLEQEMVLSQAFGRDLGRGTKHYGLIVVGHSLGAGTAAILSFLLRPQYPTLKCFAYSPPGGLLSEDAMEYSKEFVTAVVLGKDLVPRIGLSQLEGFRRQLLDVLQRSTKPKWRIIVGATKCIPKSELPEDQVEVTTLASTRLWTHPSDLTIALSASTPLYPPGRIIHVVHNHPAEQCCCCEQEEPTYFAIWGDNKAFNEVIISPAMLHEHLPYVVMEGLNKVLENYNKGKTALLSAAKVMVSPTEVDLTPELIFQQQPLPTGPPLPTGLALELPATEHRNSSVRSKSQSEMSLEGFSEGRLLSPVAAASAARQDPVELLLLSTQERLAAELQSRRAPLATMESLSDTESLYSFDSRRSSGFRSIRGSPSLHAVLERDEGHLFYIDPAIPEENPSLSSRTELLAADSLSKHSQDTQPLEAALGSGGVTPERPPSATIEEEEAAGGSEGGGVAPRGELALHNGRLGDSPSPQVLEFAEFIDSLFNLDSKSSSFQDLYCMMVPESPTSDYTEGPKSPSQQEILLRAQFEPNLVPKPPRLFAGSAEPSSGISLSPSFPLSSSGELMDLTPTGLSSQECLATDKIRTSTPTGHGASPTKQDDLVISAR

pIC50 [2]: ~6.70
SMILES: O=C(N1CCCCC1Cc1ccccc1)n1cc(C(O)(c2ccccc2)c2ccccc2)nn1 (stereo not shown) [AA43-2]
off-target activity / selectivity against other serine hydrolases [1]: off-target activity against several other serine hydrolases, notably ABHD6, KIAA1363, and LYPLA1/2
activity against DAGLB [2]: completely blocked probe-labeling of DAGLB

inhibition of ABHD11 ([4]; 10 nM): complete inactivation
pIC50 [4]: 9.00
ABHD11 activity blocked [5]: > 95% and > 97%
pIC50 [6]: 9.77 to 9.85
SMILES: COCC1CCCCN1C(=O)n1ncc(C(O)(c2ccccc2)c2ccccc2)n1 (stereo not shown) [AA44-2]
cross-reactivity with other SHs [3]: no cross-reactivity with APEH, PAFAH2, or other SHs

SMILES: O=C(N1CCCCC1Cc1ccccc1)n1cc(-c2ccc(OC(F)(F)F)cc2)nn1 (stereo not shown) [KLH25]
off-target activity / selectivity against other serine hydrolases [1]: negligible activity against LYPLA1, LYPLA2, and PAFAH2
activity against DAGLB [2]: significantly more potent against DAGLB in comparison to AA43-2
activity against DAGLA [7]: exhibited activity against both DAGL enzymes
inhibition of ABHD6 and FAAH in vivo [8]: Potent inhibition of ABHD6 and FAAH
inhibition of endogenous DAGLA or DAGLB in vivo [8]: No inhibition of protein bands corresponding to endogenous DAGLA or DAGLB

potency against DAGLB relative to KT117 [2]: greater than 5 fold
SMILES: O=C(N1CCCCC1Cc1ccccc1)n1cc(-c2ccc(Br)cc2)nn1 (stereo not shown) [KT116]

pIC50 [4]: ~7.24
SMILES: COCC1CCCCN1C(=O)n1cc(C(O)(c2ccccc2)c2ccccc2)nn1 (stereo not shown) [N1 AA44-2]

pIC50 [9]: ~8.10
SMILES: CC(C)CC(O)(CC(C)C)c1cn(C(=O)N2CCCC2)nn1 [N1 AA74-1]

pIC50 [10]: 7.96
SMILES: O=C(N1CCCC1)n1cc(-c2ccc(Br)cc2)nn1 [N1 AA80-1]

pIC50 [10]: 8.30
SMILES: O=C(N1CCCC1)n1ncc(-c2ccc(Br)cc2)n1 [N2 AA80-1]

activity against DAGLB [2]: blocked
SMILES: CCCCCCCCCCC[C@@H](C[C@@H]1OC(=O)[C@H]1CCCCCC)OC(=O)[C@H](CC(C)C)NC=O [THL, tetrahydrolipstatin, reference compound]
